Experimental data taken from paper PMC11574108, “4-Furanylvinylquinoline derivative as a new scaffold for the design of oxidative stress initiator and glucose transporter inhibitor drugs” (Scientific Reports, 2024).

How the values were obtained:
CT-DNA = assay: Intercalation, spectrophotometric study on CT-DNA; format: binding, calf; conditions: 18 µM CT-DNA, 1.5 h, 37 °C, absorption spectra
Experimental: Lyophilized calf-thymus DNA (CT-DNA; Sigma-Aldrich) was dissolved in 10 mM Tris-HCl (pH 7.9), mixed gently, and kept overnight at 4 °C. The purity of the CT-DNA solution was determined by measurement of the ratio of UV absorbance at 260 and 280 nm. […] The tested compound was dissolved in DMSO to give a concentration of 8.35 mM. This stock solution was used for preparing new solutions (25, 12.5, 6, and 3 µM) in 1 mL of 10 mM Tris-HCl (pH 7.9). Next, 18 µM CT-DNA was added to the prepared solutions, and the samples were incubated for 1.5 h at 37 °C with occasional vortexing. The measurements of the absorption spectra were performed using a Hitachi U-2900 spectrophotometer in the range of 200–500 nm. The obtained data were analysed using GraphPad Prism v.8.0 (USA).
To determine whether and to what extent the compound interacts with DNA, we also performed a spectrophotometric study on CT-DNA. […] (Fig. S2). Nevertheless, under the effect of stress-induced DNA damage in cells, […], which inhibited the CDK1 and cyclin B1 complex. This had the effect of arresting the cell cycle in the G2/M phase in an attempt to repair the DNA damages or induce apoptosis[29],[30]. Abnormal CDK1 activation is often thought to be connected with tumourigenesis. […]

CDK1 = assay: qRT-PCR, CDK1 mRNA expression; format: cell-based, human; conditions: for CDK1 mRNA level vs control: HCT 116 p53-/-, 24 h
Experimental: The cells were seeded in 35 mm Petri dishes at a density of 500,000 cells and incubated at 37 °C for 24 h. The total RNA was isolated after incubation with solutions of 13 (0.5 µM and 1.0 µM) for 24 h and 48 h, respectively. The isolation from the samples was carried out according to a TRIzol™ Reagent protocol (Thermo Fisher Scientific). Synthesis of cDNA was performed with 2 µg of total RNA using a GoScript™ Reverse Transcriptase kit (Promega) with Oligo(dT)23 Primers. Real-Time PCR was carried out using a CFX96 Touch™ Real-Time PCR Detection System (Bio-Rad) in 10 µL reaction volume. Each sample contained SsoAdvanced™ Universal SYBR Green Supermix (Bio Rad), a specific primer pair mix (0.5 µM each), and 1 µL of cDNA. The reaction was performed under the following conditions: initial denaturation at 95 °C for 30 s; 40 cycles of denaturation at 95 °C for 15 s; annealing (primer-specific temperature) for 30 s, and extension at 72 °C for 60 s. The obtained data were analysed based on a comparison of the expression of the target genes and normalized to a reference gene (GAPDH) using the Livak-Schmittgen (2^−ΔΔCT) method. The experiments were performed at least three times.
In the next step, we decided to investigate the impact of derivative 13 on the mRNA level of CDK1 (the gene encoding one of the cell cycle regulation proteins) at various concentrations and time points (Fig. 4B). In the HCT 116 p53^+/+ cells after the application 0.5 µM of derivative 13, we noticed a slight increase in the expression of CDK1 after both 24 and 48-h. […] However, after a further incubation time, the mRNA level of this gene was similar to that in the untreated cells.

PANC-1 = assay: Monolayer antiproliferative MTS assay; format: cell-based, human; conditions: 2D monolayer; for IC50: MTS, 72-h incubation
Experimental: (§1) The cells were seeded in 96-well plates (Nunc) with 5,000 or 4,000 cells per well for the cancer cells and NHDF, respectively, and incubated under standard conditions at 37 °C overnight. The culture media were then changed for freshly prepared solutions of the tested compounds in various concentrations. After 72-h incubation the antiproliferative assay was carried out as follows: the solutions of the compounds were changed in each well to 100 µL DMEM without phenol red and 20 µL of CellTiter 96 AQueous One Solution-MTS (Promega). The plates were incubated for 1 h at 37 °C, and the absorbance was then measured at 490 nm using a multi-plate reader (Synergy 4, BioTek). The experiment for each sample was repeated at least three times. The results are presented as the half-maximal inhibitory concentration (IC50) values, which were estimated in comparison to untreated cells (control) and calculated using GraphPad Prism v.8.0 (USA).
(§2) However, the antiproliferative activity of derivative 13 with furan a ring was surprising. […] For this purpose, we selected two pancreatic cancer cell lines: AsPC-1, which is characterised by a deletion of the p53 protein[20] and PANC-1, which carries an R273H mutation. This mutation also occurred in the glioblastoma U-251 cell line[22],[23]. An additional non-adherent line that carries the TP53 mutation that results in the absence of p53 is the K562 leukemic cell line[24]. […] Moreover, 13 was selective toward […], as indicated by its SI values (3.35–9.41). Among all of the tested cell lines, the highest activity of the compound was found against the HCT 116 cells with the wild-type p53 protein (0.069 µM). […] The p53 protein also interacts with the metabolic pathways that are associated with glucose transport[25] as well as small molecules. In light of the above-mentioned facts, we also determined the cytotoxicity of the GLUT inhibitor BAY-876, which is based on a quinoline scaffold. […] Furthermore, BAY-876 was also toxic to normal cells.

AsPC-1 = assay: Monolayer antiproliferative MTS assay; format: cell-based, human; conditions: 2D monolayer; for IC50: MTS, 72-h incubation
Experimental: as §1, §2

IC50 (PANC-1): 193 ± 8 nM | IC50 (PANC-1; Homo sapiens, PANC-1, 72 h): ≤ 200 nM | IC50 (AsPC-1): 123 ± 7 nM | IC50 (AsPC-1; Homo sapiens, ASPC1, 72 h): ≤ 200 nM
SMILES: O=[N+]([O-])c1ccc(/C=C/c2ccnc3ccccc23)o1 [Compound 13]
hypochromism (CT-DNA): 10.97% | CDK1 mRNA level vs control (CDK1; 0.5 µM): two-fold higher | CDK1 mRNA level vs control (CDK1; 1 µM): around one and the half times | CDK1 mRNA expression vs control (CDK1; U-251, 24 h): greater than two-fold upregulation | SI (selectivity index) PANC-1 (PANC-1; relative to NHDF): 3.36 | SI (selectivity index) AsPC-1 (AsPC-1; relative to NHDF): 5.28
